Measurements published in patent publication US20200085749A1, “IMMEDIATE-RELEASE TABLETS CONTAINING A DRUG AND PROCESSES FOR FORMING THE TABLETS” (Genentech, Inc., priority 2015, published 2020).

Assays:
[1] = 24-hour solubility of active drug in buffers across the physiological pH range; type: physicochemical; settings: 37° C.
Method: Cobimetinib is considered to be a high-solubility, moderate-to-high permeability compound with in vivo absorption/pharmacokinetic characteristics consistent with Biopharmaceutics Classification System (BCS) Class 1. […] An active drug is considered highly soluble when the highest dose strength is soluble in <250 mL water over a pH range of 1 to 7.5.

[2] = system: BRAF^v600 mutation-positive advance melanoma; settings: cited from earlier work
[3] = system: unresectable or metastatic melanoma that is BRAF^v600E mutation-positive; settings: cited from earlier work

Row | Solubility ([1]; 50 mM Acetate pH 4.5 (pH measured 4.5)) | Solubility ([1]; 50 mM Phosphate pH 6.8 (pH measured 6.8)) | Solubility ([1]; 50 mM Phosphate pH 7.5 (pH measured 7.5)) | Solubility ([1]; 0.1M HCl pH 1.1 (pH measured 1.9)) | Solubility ([1]; FaSSIF pH 6.5 (pH measured 6.4)) | Solubility ([1]; FeSSIF pH 5.0 (pH measured 5.0)) | Solubility ([1]; Water, pH Neutral (pH measured 7.5)) | Compound | median progression-free survival [2] | decrease in the risk of disease progression or death ([3]; compared with dacarbazine) | reduction in the risk of death ([3]; compared with dacarbazine) | response rates ([3]; human, in vivo)
1 | 1080 µg/mL | 780 µg/mL | 730 µg/mL | 48210 µg/mL | 480 µg/mL | 4130 µg/mL | 720 µg/mL | (S)-[3,4-Difluoro-2-(2-fluoro-4-iodoanilino)phenyl]{3-hydroxy-3-[(2S)-piperidin-2-yl]azetidin-1-yl} methanone [cobimetinib hemifumarate] |  |  |  | 
2 |  |  |  |  |  |  |  | CCCS(=O)(=O)Nc1ccc(F)c(C(=O)c2c[nH]c3ncc(-c4ccc(Cl)cc4)cc23)c1F [vemurafenib, propane-1-sulfonic acid {3-[5-(4-chlorophenyl)-1H-pyrrolo[2,3-b]pyridine-3-carbonyl]-2,4-difluoro-phenyl}-amide] | 6.2 months | 74% | 63% | greater than 50%
